Results from patent US9433622B2, “Pyrimidine compounds useful in the treatment of diseases mediated by IKKE and/or TBK1 mechanisms” (DOMAINEX LIMITED, priority 2013, dated 2016).
Read-outs that look alike come from different tables or passages of the source.

Columns and labels:
IKKε = IKKε (Homo sapiens (Human), UniProt Q14164); assay: Lanthascreen TR-FRET kinase inhibition assay, IKKε; format: biochemical
Outline: (§1)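 TR-FRET: terbium phosphospecific antibody detects phosphorylation of 400 nM fluorescein-IkBα peptide, 20 μM ATP, 20 °C, HEPES pH 7.5 with 3% DMSO. IKKε at 2 nM, 1 h reaction; TBK1 at 8 nM, 2.5 h reaction; started by kinase addition.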

TBK1 = TBK1 (Homo sapiens (Human), UniProt Q9UHD2); assay: Lanthascreen TR-FRET kinase inhibition assay, TBK1; format: biochemical; conditions: 20 μM ATP (apparent Km), 8 nM kinase, 2.5 h
Outline: as §1

[1] = 20 μM ATP (apparent Km), 2 nM kinase, 1 h

Chain of TBK1 (Q9UHD2 whole entry): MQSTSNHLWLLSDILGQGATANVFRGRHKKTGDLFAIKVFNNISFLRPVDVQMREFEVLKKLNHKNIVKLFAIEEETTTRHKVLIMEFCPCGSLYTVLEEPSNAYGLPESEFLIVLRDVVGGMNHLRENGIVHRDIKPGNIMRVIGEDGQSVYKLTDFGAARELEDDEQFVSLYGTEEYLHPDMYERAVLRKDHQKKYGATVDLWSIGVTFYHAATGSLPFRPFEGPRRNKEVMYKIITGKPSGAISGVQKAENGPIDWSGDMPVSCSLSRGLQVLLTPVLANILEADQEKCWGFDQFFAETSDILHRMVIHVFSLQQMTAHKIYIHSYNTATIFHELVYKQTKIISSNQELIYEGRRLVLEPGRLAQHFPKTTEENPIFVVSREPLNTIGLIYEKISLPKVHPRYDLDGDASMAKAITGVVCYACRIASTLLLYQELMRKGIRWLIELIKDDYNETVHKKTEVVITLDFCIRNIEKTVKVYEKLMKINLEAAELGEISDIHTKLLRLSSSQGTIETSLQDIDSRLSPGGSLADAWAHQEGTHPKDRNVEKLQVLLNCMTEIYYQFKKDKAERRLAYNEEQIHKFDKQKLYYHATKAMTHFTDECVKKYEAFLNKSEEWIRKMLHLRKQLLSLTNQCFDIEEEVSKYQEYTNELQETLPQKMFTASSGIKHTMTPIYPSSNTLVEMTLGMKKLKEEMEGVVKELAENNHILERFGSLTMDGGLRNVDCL
Chain of IKKε (Q14164 whole entry): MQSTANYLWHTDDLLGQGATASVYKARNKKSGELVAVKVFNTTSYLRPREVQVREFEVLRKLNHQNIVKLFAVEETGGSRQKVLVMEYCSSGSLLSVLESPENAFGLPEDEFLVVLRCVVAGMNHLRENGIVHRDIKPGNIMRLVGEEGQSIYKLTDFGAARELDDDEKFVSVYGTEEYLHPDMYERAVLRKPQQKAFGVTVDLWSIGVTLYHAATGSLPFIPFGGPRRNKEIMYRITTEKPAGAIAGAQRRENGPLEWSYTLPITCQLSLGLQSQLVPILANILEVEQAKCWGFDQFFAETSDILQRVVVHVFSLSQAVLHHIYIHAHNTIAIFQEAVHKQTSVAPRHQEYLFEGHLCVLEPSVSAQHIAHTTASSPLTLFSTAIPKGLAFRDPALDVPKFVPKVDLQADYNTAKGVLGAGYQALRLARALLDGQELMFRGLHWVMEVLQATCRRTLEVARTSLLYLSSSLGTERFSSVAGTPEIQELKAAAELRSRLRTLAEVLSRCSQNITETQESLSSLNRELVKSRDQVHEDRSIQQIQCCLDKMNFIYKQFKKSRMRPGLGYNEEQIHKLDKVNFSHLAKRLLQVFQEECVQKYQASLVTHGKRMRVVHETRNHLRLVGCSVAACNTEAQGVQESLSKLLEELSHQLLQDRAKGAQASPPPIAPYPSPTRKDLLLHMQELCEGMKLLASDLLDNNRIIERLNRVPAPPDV

SMILES	IC50 (IKKε; [1]) [nM]	IC50 (TBK1) [nM]	IC50 (IKKε) [nM]
CS(=O)(=O)CCNCc1ccc(Nc2nccc(-c3cnc(N4CC[C@H](F)C4)c(C#N)c3)n2)cn1 [DMX-98, 2-((S)-3-Fluoro-pyrrolidin-1-yl)-5-(2-{6-[(2-methanesulfonyl-ethylamino)-methyl]-pyridin-3-ylamino}-pyrimidin-4-yl)-nicotinonitrile]	< 30	< 30	
Cn1cc(Nc2nccc(-c3cnc(N4CCC[C@@H]4C(=O)O)c(C#N)c3)n2)cn1 [DMX-40, (R)-1-{3-Cyano-5-[2-(1-methyl-1H-pyrazol-4-ylamino)-pyrimidin-4-yl]-pyridin-2-yl}-pyrrolidine-2-carboxylic acid]	< 9000	< 1000	
N#Cc1cc(-c2ccnc(Nc3ccc4c(c3)CNC4)n2)cnc1N1CC[C@H](F)C1 [DMX-126, 5-[2-(2,3-Dihydro-1H-isoindol-5-ylamino)-pyrimidin-4-yl]-2-((S)-3-fluoro-pyrrolidin-1-yl)-nicotinonitrile]	< 15	< 15	
CC(C(=O)Nc1ccc(Nc2nccc(-c3cnc(N4CC[C@H](F)C4)c(C#N)c3)n2)cn1)N1CCOCC1 (stereo partly drawn) [DMX-32, N-(5-{4-[5-Cyano-6-((S)-3-fluoro-pyrrolidin-1-yl)-pyridin-3-yl]-pyrimidin-2-ylamino}-pyridin-2-yl)-2-morpholin-4-yl-propionamide]	< 30	< 30	
C[C@H]1COCCN1Cc1cc(Nc2nccc(-c3cnc(N4CC[C@H](F)C4)c(C#N)c3)n2)ccn1 [DMX-78, 2-((S)-3-Fluoro-pyrrolidin-1-yl)-5-{2-[2-((S)-3-methyl-morpholin-4-ylmethyl)-pyridin-4-ylamino]-pyrimidin-4-yl}-nicotinonitrile]	< 30	< 15	
CN(C(=O)CN1CCOCC1)c1ccc(Nc2nccc(-c3cnc(N4CC[C@H](O)C4)c(C#N)c3)n2)cn1 [DMX-75, N-(5-{4-[5-Cyano-6-((S)-3-hydroxy-pyrrolidin-1-yl)-pyridin-3-yl]-pyrimidin-2-ylamino}-pyridin-2-yl)-N-methyl-2-morpholin-4-yl-acetamide]	< 1000	< 1000	
CC(=O)Nc1ccc(Nc2nccc(-c3cnc(N[C@@H]4CCOC4)c(C#N)c3)n2)cn1 [DMX-113, N-[5-(4-{5-Cyano-6-[(R)-(tetrahydro-furan-3-yl)amino]-pyridin-3-yl}-pyrimidin-2-ylamino)-pyridin-2-yl]-acetamide]	< 1000	< 1000	
C[C@H]1COCCN1Cc1ccc(Nc2nccc(-c3ccc(N4CC[C@H](F)C4)c(C#N)n3)n2)cn1 [DMX-149, 3-((S)-3-Fluoro-pyrrolidin-1-yl)-6-{2-[6-((S)-3-methyl-morpholin-4-ylmethyl)-pyridin-3-ylamino]-pyrimidin-4-yl}-pyridine-2-carbonitrile]		< 15	< 15
N#Cc1cc(-c2ccnc(Nc3cccc(C(=O)NC4CCNCC4)c3)n2)cnc1N[C@@H]1CCOC1 [DMX-117, 3-(4-{5-Cyano-6-[(R)-(tetrahydro-furan-3-yl)amino]-pyridin-3-yl}-pyrimidin-2-ylamino)-N-piperidin-4-yl-benzamide]	< 1000	< 1000	
N#Cc1cc(-c2ccnc(Nc3ccc(CN4CCOCC4)nc3)n2)cnc1N1CCC(OC(F)F)C1 (stereo not drawn) [DMX-161, 2-(3-Difluoromethoxy-pyrrolidin-1-yl)-5-[2-(6-morpholin-4-ylmethyl-pyridin-3-ylamino)-pyrimidin-4-yl]-nicotinonitrile]	< 30	< 100	
N#Cc1nc(-c2ccnc(Nc3ccc(NC(=O)CN4CCOCC4)nc3)n2)ccc1N1CCC2(COC2)C1 [DMX-167, N-(5-{4-[6-Cyano-5-(2-oxa-6-aza-spiro[3.4]oct-6-yl)-pyridin-2-yl]-pyrimidin-2-ylamino}-pyridin-2-yl)-2-morpholin-4-yl-acetamide]	< 30	< 100	
Cn1cc(Nc2nccc(-c3cnc(N4CCC[C@@H]4C(N)=O)c(C#N)c3)n2)cn1 [DMX-43, (R)-1-{3-Cyano-5-[2-(1-methyl-1H-pyrazol-4-ylamino)-pyrimidin-4-yl]-pyridin-2-yl}-pyrrolidine-2-carboxylic acid amide]	< 100	< 100	
